For 15 compounds, Kb and IC50 results are on record in patent US10774074B2, “2-(1-heteroarylpiperazin-4-yl)methyl-1,4-benzodioxane derivatives as alpha2C antagonists” (ORION CORPORATION, priority 2015, dated 2020).

Assay [1] has as its target T1, human alpha2A receptors (Homo sapiens, UniProt P08913).
T1 construct: host or cells: CHO cells, cotransfected with pCEP-Gα16
T1 sequence (P08913 1-465): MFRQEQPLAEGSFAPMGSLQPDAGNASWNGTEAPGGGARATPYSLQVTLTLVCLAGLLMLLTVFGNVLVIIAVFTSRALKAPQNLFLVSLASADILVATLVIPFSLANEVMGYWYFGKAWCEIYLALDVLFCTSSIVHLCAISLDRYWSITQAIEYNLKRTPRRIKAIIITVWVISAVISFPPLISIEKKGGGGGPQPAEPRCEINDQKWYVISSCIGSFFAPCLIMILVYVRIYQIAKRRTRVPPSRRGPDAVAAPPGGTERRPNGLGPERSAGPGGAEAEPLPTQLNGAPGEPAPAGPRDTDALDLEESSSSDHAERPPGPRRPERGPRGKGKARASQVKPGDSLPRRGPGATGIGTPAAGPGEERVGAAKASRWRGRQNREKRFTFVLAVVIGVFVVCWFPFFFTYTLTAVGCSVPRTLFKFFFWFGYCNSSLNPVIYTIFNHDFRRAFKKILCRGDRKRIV
Nature of the assay: Determination of alpha2A antagonistic activity in vitro (FLIPR calcium assay, CHO cells). The class given is cell-based. The conditions noted are these: for Kb: Kb calculated with the Cheng-Prusoff equation from IC50, adrenaline as agonist, CHO cells, human alpha2A, read-out: Alpha 2A Adrenaline Kb; for IC50: antagonism of adrenaline stimulation, CHO cells stably transfected with human alpha2A receptor and Gα16, intracellular calcium (FLIPR), read-out: Alpha 2A Adrenaline IC50. As for the experimental part:
(§1) EXPERIMENT 1: Determination of alpha2A and alpha2C Antagonistic Activity In Vitro
(§2) Chinese hamster ovary (CHO) cells stably transfected with human alpha2A or alpha2C receptors (University of Turku, Finland) were cotransfected with the expression vector pCEP-Gα16 (Molecular Devices, CA, USA) were used in this experiment. The cells were maintained at 37° C. in a 5% CO2/95% air atmosphere. The cells were cultured in HAM F-12 medium supplemented with 10% FCS, 25 mM HEPES, 100 IU/ml penicillin, 100 µg/ml streptomycin, 500 μg/ml geneticin and 240 μg/ml hygromycin B. The cells were subcultured twice weekly with 0.25% trypsin and 1 mM EDTA. The subculture ratio was 1:5-1:20. The growth medium was changed every 2 or 3 days. All cell culture reagents were from Gibco. The day before the experiment the cells were plated into black-walled, clear bottom 384-well plates at a density of 10,000 cells/well.
(§3) The growth medium was removed and the cells were incubated with the test compounds and the FLIPR Calcium 6 Assay reagent (Molecular Devices, CA, USA) for 2 h at 37° C. in dark. The test compounds (concentrations in cells 100 pM-10 μM) were dissolved in Probenecid-Ringer consisting of 150 mM NaCl, 3 mM KCl, 1.2 mM MgCl2, 1 mM CaCl2, 5 mM glucose, 20 mM HEPES and 2.5 mM probenecid (pH 7.4 adjusted with 1.0 M NaOH). The osmolarity was adjusted to 322 milliosmoles with Osmostat® OM-6020 osmometer (DIC Kyoto Daiichi Kagagu Co. Ltd, Japan). […] All experiments were performed at 37° C. For agonism measurements the test compounds dissolved in Probenecid-Ringer were applied by FLIPR Tetra at 15 s time point. In order to determine antagonism, the cells were stimulated either with 100 nM adrenaline or noradrenaline and the test compounds were added to the cells 2 h before the experiment with the FLIPR Calcium 6 Assay reagent. […] Typically, there were four replicates at each concentration and six different dose levels. For example, if the number of plates from which results were obtained was three, 72 (4*6*3) wells were thus measured to construct dose-response relationship. The samples were excited at 485 nm and emission was detected at 525 nm with a 515 nm cut-off filter. The minimum fluorescence value subtracted from the maximum value for each well was used in the calculations. ScreenWorks version 4.0 software was used for analyzing the results. Fitting of the antagonist dose-response results was performed with the free Hill equation and the IC50 values were fitted with IDBS XE software using model 200: y=(A+(B/(1+((x/C)^D)))), where A is the curve maximum, B the curve minimum and C equals the EC50 value. D is slope factor (Hill). Kb was calculated with the Cheng-Prusoff equation Kb=A/((B/C)+1), where A is the IC50 of antagonist, B the concentration of agonist and C the EC50 of the agonist.

The target in assay [2] is T2, human alpha2C receptors (Homo sapiens, UniProt P18825).
T2 construct: host or cells: CHO cells, cotransfected with pCEP-Gα16
T2 sequence (P18825 1-462): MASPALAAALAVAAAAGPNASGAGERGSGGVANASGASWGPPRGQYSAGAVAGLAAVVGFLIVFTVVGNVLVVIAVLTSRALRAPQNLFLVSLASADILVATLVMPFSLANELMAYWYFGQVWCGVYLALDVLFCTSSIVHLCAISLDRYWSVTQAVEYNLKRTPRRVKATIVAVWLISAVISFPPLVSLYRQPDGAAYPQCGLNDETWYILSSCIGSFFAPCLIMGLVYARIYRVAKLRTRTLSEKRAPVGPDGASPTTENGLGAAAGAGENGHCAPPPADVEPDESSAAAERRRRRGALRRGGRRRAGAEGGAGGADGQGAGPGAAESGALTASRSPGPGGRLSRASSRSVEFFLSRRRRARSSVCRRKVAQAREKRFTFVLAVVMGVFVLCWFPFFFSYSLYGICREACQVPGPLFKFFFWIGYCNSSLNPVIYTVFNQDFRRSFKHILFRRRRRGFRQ
Nature of the assay: Determination of alpha2C antagonistic activity in vitro (FLIPR calcium assay, CHO cells). The format is cell-based. As to conditions: for Kb: Kb calculated with the Cheng-Prusoff equation from IC50, adrenaline as agonist, CHO cells, human alpha2C, read-out: Alpha 2C Adrenaline Kb; for IC50: antagonism of adrenaline stimulation, CHO cells stably transfected with human alpha2C receptor and Gα16, intracellular calcium (FLIPR), read-out: Alpha 2C Adrenaline IC50. Here is the method:
as §1, §2, §3

The structures appear in SMILES notation.

One may read the Kb as the affinity of an antagonist, worked out from how it opposes an agonist. A word on the IC50: it is the concentration that inhibits the measured activity by half. `Cc1c(N2CCCC2=O)c(N2CCN(C[C@H]3COc4ccccc4O3)CC2)nn1C` [Compound of example 14, (S)-1-(3-(4-((2,3-Dihydrobenzo[b][1,4]dioxin-2-yl)methyl)piperazin-1-yl)-1,5-dimethyl-1H-pyrazol-4-yl)pyrrolidin-2-one]: in assay [1], the Kb was 382 nM and the IC50 was 8520 nM. In assay [2], the Kb was 0.29 nM and the IC50 was 0.03 nM.
The corresponding values for `Cc1c(N2CCN(C)C2=O)c(N2CCN(C[C@H]3COc4ccccc4O3)CC2)nn1C` [Compound of example 15, (S)-1-(3-(4-((2,3-Dihydrobenzo[b][1,4]dioxin-2-yl)methyl)piperazin-1-yl)-1,5-dimethyl-1H-pyrazol-4-yl)-3-methylimidazolidin-2-one] are greater than 449 nM, greater than 10000 nM, 1.64 nM and 0.17 nM.
In the same order, the values of `CC(=O)Nc1nsnc1N1CCN(C[C@H]2COc3ccccc3O2)CC1` [Compound of example 16, (S)—N-(4-(4-((2,3-Dihydrobenzo[b][1,4]dioxin-2-yl)methyl)piperazin-1-yl)-1,2,5-thiadiazol-3-yl)acetamide] are greater than 449 nM, greater than 10000 nM, 4210 nM and 424 nM.
In the same order, the values of `CC1(C)CCN(c2nsnc2N2CCN(C[C@H]3COc4ccccc4O3)CC2)C1=O` [Compound of example 17, (S)-1-(4-(4-((2,3-Dihydrobenzo[b][1,4]dioxin-2-yl)methyl)piperazin-1-yl)-1,2,5-thiadiazol-3-yl)-3,3-dimethylpyrrolidin-2-one] are greater than 449 nM, greater than 10000 nM, less than 0.1 nM and less than 0.01 nM.
Take `c1cnc(Nc2nsnc2N2CCN(C[C@H]3COc4ccccc4O3)CC2)nc1` [Compound of example 18, (S)-4-(4-((2,3-Dihydrobenzo[b][1,4]dioxin-2-yl)methyl)piperazin-1-yl)-N-(pyrimidin-2-yl)-1,2,5-thiadiazol-3-amine]: in assay [1], the antagonist dissociation constant (Kb) was 233 nM and the IC50 stood at 5190 nM. In addition, in assay [2], the Kb is 30.1 nM and the IC50 stood at 3.03 nM.
In the same order, the values of `c1ccc2c(c1)OC[C@H](CN1CCN(c3nsnc3Nc3ccncn3)CC1)O2` [Compound of example 19, (S)-4-(4-((2,3-Dihydrobenzo[b][1,4]dioxin-2-yl)methyl)piperazin-1-yl)-N-(pyrimidin-4-yl)-1,2,5-thiadiazol-3-amine] are 459 nM, 10200 nM, less than 0.1 nM and less than 0.01 nM.
With `O=C1CCCN1c1ncsc1N1CCN(C[C@H]2COc3ccccc3O2)CC1` [Compound of example 20, (S)-1-(5-(4-((2,3-Dihydrobenzo[b][1,4]dioxin-2-yl)methyl)piperazin-1-yl)thiazol-4-yl)pyrrolidin-2-one], the results for the Kb in assay [1] and in assay [2] were 405 nM and 0.394 nM, respectively. The IC50 turned out to be 9020 nM in assay [1] and 0.04 nM in assay [2].
In the same order, the values of `CC1CCN(c2nsnc2N2CCN(C[C@H]3COc4ccccc4O3)CC2)C1=O` (stereo partly drawn) [Compound of example 21, 1-(4-(4-(((S)-2,3-Dihydrobenzo[b][1,4]dioxin-2-yl)methyl)piperazin-1-yl)-1,2,5-thiadiazol-3-yl)-3-methylpyrrolidin-2-one] are greater than 449 nM, 0.38 nM, greater than 10000 nM and 0.04 nM.
The corresponding values for `c1ccc2c(c1)OC[C@H](CN1CCN(c3nncs3)CC1)O2` [Compound of example 22, (S)-2-(4-((2,3-Dihydrobenzo[b][1,4]dioxin-2-yl)methyl)piperazin-1-yl)-1,3,4-thiadiazole] are greater than 449 nM, 1570 nM, greater than 10000 nM and 158 nM.
In the same order, the values of `COCc1nc(N2CCN(C[C@H]3COc4ccccc4O3)CC2)no1` [Compound of example 23, (S)-3-(4-((2,3-Dihydrobenzo[b][1,4]dioxin-2-yl)methyl)piperazin-1-yl)-5-(methoxymethyl)-1,2,4-oxadiazole] are greater than 449 nM, 1350 nM, greater than 10000 nM and 136 nM.
`O=C1CCCN1c1nsnc1N1CCN(C[C@H]2COc3ccccc3O2)CC1` [Compound of example 24, (S)-1-(4-(4-((2,3-Dihydrobenzo[b][1,4]dioxin-2-yl)methyl)piperazin-1-yl)-1,2,5-thiadiazol-3-yl)pyrrolidin-2-one]: the Kb in assay [1] was 385 nM; in assay [2] it was 0.546 nM. Also, the IC50 in assay [1] amounted to 8570 nM; in assay [2], 0.055 nM.
In the same order, the values of `O=C1NCCN1c1nnc(N2CCN(C[C@H]3COc4ccccc4O3)CC2)s1` [Compound of example 25, (S)-1-(5-(4-((2,3-Dihydrobenzo[b][1,4]dioxin-2-yl)methyl)piperazin-1-yl)-1,3,4-thiadiazol-2-yl)imidazolidin-2-one] are 514 nM, 28.4 nM, 11500 nM and 2.86 nM.
The corresponding values for `O=C1OCCN1c1nsnc1N1CCN(C[C@H]2COc3ccccc3O2)CC1` [Compound of example 26, (S)-3-(4-(4-((2,3-Dihydrobenzo[b][1,4]dioxin-2-yl)methyl)piperazin-1-yl)-1,2,5-thiadiazol-3-yl)oxazolidin-2-one] are greater than 449 nM, 183 nM, greater than 10000 nM and 18.5 nM.
The corresponding values for `NC(=O)c1nsnc1N1CCN(C[C@H]2COc3ccccc3O2)CC1` [Compound of example 27, (S)-4-(4-((2,3-Dihydrobenzo[b][1,4]dioxin-2-yl)methyl)piperazin-1-yl)-1,2,5-thiadiazole-3-carboxamide] are greater than 449 nM, 1650 nM, greater than 10000 nM and 166 nM.
For the compound `CN1CCN(c2nsnc2N2CCN(C[C@H]3COc4ccccc4O3)CC2)C1=O` [Compound of example 28, (S)-1-(4-(4-((2,3-Dihydrobenzo[b][1,4]dioxin-2-yl)methyl)piperazin-1-yl)-1,2,5-thiadiazol-3-yl)-3-methylimidazolidin-2-one], in assay [1], the Kb was greater than 449 nM and the IC50 is greater than 10000 nM. For the same compound, in assay [2], the Kb is 1070 nM and the IC50 stood at 108 nM.
